Results as given in patent US20140335135A1, “PHARMACEUTICAL COMPOSITION” (FERRING BV, priority 2011, published 2014).

Key:
[1] = Solubility of triptorelin in hexyl substituted polylactide polymer; type: physicochemical
Text: Triptorelin is not soluble in the hexyl substituted polylactide polymer (which is a viscous liquid) because of its relatively high hydrophilicity. The lyophilized triptorelin was therefore micronized, by cryomilling or spray-drying, to ensure small particle size for incorporation into the polymer. Preferably the triptorelin (or salt/derivative thereof) is micronized/mixed with the polylactide at a temperature below the glass transition temperature of the polylactide, more preferably at temperature of around −196° C., so as to avoid melting and resulting increased viscosity of the polylactide.

[2] = Particle size distribution by optical microscopy (diameter of the coextensive circle); type: physicochemical
Description: Two different methods were used to incorporate triptorelin into the hexyl substituted polylactide polymer. The first was a “separate milling and mixing” method in which the triptorelin was micronized using an SPEX 6700 Freezer/mill at −196° C. in liquid nitrogen (milling for 5 min), the resulting micronized powder being mixed with the hexyl substituted polylactide polymer by kneading in plastic bags until a homogeneous formulation was obtained (as verified by optical microscopy).
In the second method, lyophilised triptorelin (10% by weight of polymer or 5% by weight polymer or 2.5% by weight polymer) was incorporated into the polymer by a combined direct “cryo-milling-mixing” technique. The triptorelin was micronized together with the polymer in a cryo-mill (SPEX 6700 Freezer/mill) at −196 C for five minutes in liquid nitrogen. The particle size distribution in the formulations was analysed using an Optishot-2 microscope (Nikon, Tokyo, Japan) and ImageJ software.
The kneading provided a homogenous suspension (FIG. 1a) although the average diameter increased to 9.0 μm because some larger particles of more than 30 μm were formed due to agglomeration.

## CC(C)C[C@H](NC(=O)[C@@H](Cc1c[nH]c2ccccc12)NC(=O)[C@H](Cc1ccc(O)cc1)NC(=O)[C@H](CO)NC(=O)[C@H](Cc1c[nH]c2ccccc12)NC(=O)[C@H](Cc1c[nH]cn1)NC(=O)[C@@H]1CCC(=O)N1)C(=O)N[C@@H](CCCNC(=N)N)C(=O)N1CCC[C@H]1C(=O)NCC(N)=O [Triptorelin, L-Pyroglutamyl-L-histidyl-Ltryptophyl-L-seryl-L-tyrosyl-D-tryptophyl-L-eucy-L-arginy-L-prolyl-glycinamide]
[1]
  solubility in the hexyl substituted polylactide polymer: not soluble
[2]
  average diameter for the coextensive circle: 5.6 μm
